Measured values taken from US4421688A, “Macbecin derivatives” (Takeda Chemical Industries, Ltd., priority 1981, dated 1983).

Assay: Acute toxicity, mouse, intraperitoneal
Format: in vivo

COC1c2cc(O)cc(c2O)NC(=O)/C(C)=C/C=C\C(C)C(OC(N)=O)/C(C)=C/C(C)C(OC)C(O)CC1C (centres unmarked) [E-5-R]
acute toxicity as compared with Macbecin I and II (in words) (intraperitoneal, versus Macbecin I and II): lower toxicity as compared with Macbecin I and II | acute toxicity (in words) (ip): low toxicity
